Measured values reported in patent US20210253518A1, “KINASE INHIBITOR” (NISSAN CHEMICAL CORPORATION, priority 2018, published 2021).

Assays:
TAZ protein = test: Imaging analysis of nuclear translocation in SKOV3 cells; type: cell-based, human; settings: 10 μM, 4 hr, ratio of fluorescence intensity nucleus/cytoplasm, no addition 6.98
Description: Compounds k-1:B-1, k-1:H-1, and k-1:J-1 were evaluated for nuclear translocation of YAP protein and TAZ protein. For the nuclear translocation, imaging analysis was performed using the human ovarian cancer cell line SKOV3 (manufactured by DS Pharma Biomedical Co., Ltd) and OperettaCLS (manufactured by PerkinElmer) described below. The compounds were added such that the final concentration of the test concentration of k-1:B-1, k-1:H-1, and k-1:J-1 was 10 μM.
Human ovarian cancer cell line SKOV3 cultured according to the protocol recommended by DS Pharma Biomedical Co., Ltd. was seeded on a 96-well plate (manufactured by PerkinElmer, CellCarrier-Ultra) at 15,000 cells/90 μL/well on the cycloolefin bottom surface, and cultured in a CO2 incubator (37° C., 5% CO2) for 1 day. After culturing, 10 μL of k-1:B-1, k-1:H-1, and k-1:J-1 solutions having a concentration of 100 μM and dissolved in DMSO was added. The cells were further cultured in a CO2 incubator at 37° C. for 4 hr. The medium was exchanged with 4% para-formaldehyde, and the cells were fixed by allowing to stand at room temperature for 10 min. The fixed cells were subjected to immunostaining with AlexaFluor® 647-labeled YAP antibody (manufactured by Cell Signaling Technology), anti-mouse TAZ (D-8) antibody (manufactured by SantaCruz), AlexaFluor® 555-labeled anti-mouse IgG antibody (manufactured by Thermo Fisher Scientific), according to the recommended protocol produced by Cell Signaling Technology, and the cell nucleus was further stained with 10 μg/mL Hoechst33342 solution.
Nine fields of view were imaged per well using a 20× objective lens of Operatta CLS. The cell nucleus region and the cytoplasm region were identified from the obtained fluorescence images by using the analysis software Harmony (manufactured by PerkinElmer), and AlexaFluor® 647 fluorescence intensity per unit area and the AlexaFluor® 555 fluorescence intensity per unit area in each region were extracted. The nuclear translocation was evaluated by calculating the ratio of the fluorescence intensity of the cell nucleus region to the fluorescence intensity of the cytoplasmic region from the extracted values. The value becomes greater than 1 as the YAP protein and TAZ protein transfer into the cell nucleus, and less than 1 when localized in the cytoplasm.
The specific compound used in the present invention was evaluated for the nuclear translocation of YAP protein and TAZ protein. For the nuclear translocation, imaging analysis was performed using the human ovarian cancer cell line SKOV3 (DS Pharma Biomedical Co., Ltd) and OperettaCLS (PerkinElmer) described below. The specific compound was added such that the final concentration of the test concentration of the compound used in the present invention was 10 μM.
Human ovarian cancer cell line SKOV3 cultured according to the protocol recommended by DS Pharma Biomedical Co., Ltd. was seeded on a 96-well plate (PerkinElmer, CellCarrier-Ultra) at 15,000 cells/90 μL/well on the cycloolefin bottom surface, and cultured in a CO2 incubator (37° C., 5% CO2) for 1 day. After culturing, a solution of the specific compound used in the present invention dissolved in DMSO was added. The cells were further cultured in a CO2 incubator at 37° C. for 4 hr, the medium was exchanged with 4% para-formaldehyde, and the cells were fixed by allowing to stand at room temperature for 10 min. The fixed cells were subjected to immunostaining with AlexaFluor® 647-labeled YAP antibody (Cell Signaling Technology), anti-mouse TAZ (D-8) antibody (SantaCruz), AlexaFluor® 555-labeled anti-mouse IgG antibody (Thermo Fisher Scientific), according to the recommended protocol produced by Cell Signaling Technology, and the cell nucleus was further stained with 10 μg/mL Hoechst33342 solution.
Nine fields of view were imaged per well using a 20× objective lens of Operatta CLS. […]

[1] = test system: YAP (phospho-S127 and total); test: YAP phosphorylation inhibitory action in SKOV3 cells (HTRF, YAP-total kit / YAP phospho-S127 kit); type: cell-based, human; settings: 10 μM, 1 hr, Non-treatment as 100%
Description: Human ovarian cancer cell line SKOV3 (manufactured by DS Pharma Biomedical Co., Ltd) was precultured (single layer culture) in a 15% FBS-containing McCoy's 5a medium (manufactured by Sigma Ltd. Aldrich). The above-mentioned cells in the logarithmic growth phase were washed with PBS, a 0.25% (w/v) trypsin-1 mmol/L ethylenediaminetetraacetic acid (EDTA) solution (manufactured by Fujifilm Wako Pure Chemical Corporation) was added, and adherent cells were detached by incubating at 37° C. for 3 min. The above-mentioned medium was added and the mixture was centrifuged and resuspended in the same medium.
According to the method of patent document (WO 2014/017513), a composition of 10% FBS-containing DMEM medium (Phenol-red free, manufactured by FUJIFILM Wako Pure Chemical Corporation) containing 0.015% (w/v) deacylated gellan gum (KELCOGEL CG-LA, manufactured by SANSHO Co., Ltd.) was prepared using FCeM-series Preparation Kit (manufactured by FUJIFILM Wako Pure Chemical Corporation). Then, various cells prepared above were suspended in the above-mentioned medium composition (3D conditions) added with deacylated gellan gum or a medium without the addition (2D conditions), and seeded on a 50 μL/well (manufactured by Corning Incorporated, 96 well flat bottom plate, #3585, 2D conditions) or 25 μL/well (manufactured by Corning Incorporated, 96 well low adhesion flat bottom plate, #3474) at 100000 cells/well. The plate was allowed to stand at 37° C. in a 5% CO2 incubator, and the compound of the present invention diluted with the medium at 2 or 6 times the final concentration, DMSO, or the medium alone was added to the plate 3 hr after the seeding at 50 μL/well (2D conditions) or 5 μL/well (3D conditions) to make the final concentration of each compound 10 μM. After culture at 37° C. in a 5% CO2 incubator for 1 hr, the supernatant was aspirated, supplemented Lysis buffer (1-fold concentration, manufactured by Cisbio, YAP-total kit or YAP phospho-S127 kit) (50 μL) was added under 2D conditions, and supplemented Lysys buffer (4-fold concentration) (10 μL) was added to the culture supernatant under 3D conditions, and the mixture was stirred by a plate shaker for 30 min. Thereafter, the plate was centrifuged, 16 μL of the supernatant was transferred to a 384-well white plate (Corning, #4512), and each antibody solution (pYAP d2 antibody or Total-YAP d2 antibody, and pYAP Cryptate antibody or Total-YAP Cryptate antibody) included in the kit was added at 4 μL/well in total, and the mixture was allowed to stand at room temperature overnight. As a blank control, pYAP Cryptate antibody or Total-YAP Cryptate antibody alone was added to cells free of stimulation with compound and the mixture was treated in the same manner (Non-treatment). The next day, the wavelengths at 665 nm and 615 nm were measured in the HTRF mode of EnVision (manufactured by PerkinElmer).
The obtained signal was calculated as follows. Ratio=signal (665 nm)/signal (615 nm)×10000, ΔR=Signal(Ratio)−Background fluorescence, and the relative value with respect to ΔR of the compound non-addition group (Non-treatment) as 100% was calculated, and the phosphorylated YAP amount or total YAP amount by each compound was evaluated.

| Compound | TAZ nuclear translocation rate (TAZ protein) | phosphorylated YAP (%) ([1]; 2D condition) | total YAP (%) ([1]; 2D condition) | phosphorylated YAP (%) ([1]; 3D condition) | total YAP (%) ([1]; 3D condition) |
| --- | --- | --- | --- | --- | --- |
| CCC(=NNC(=O)CNc1ccccc1)c1ccc(O)c(C)c1O [k-1:H-1] | 8.84 | 38% | 94% | 80% | 107% |
| CC/C(=N\NC(=O)C(C)Nc1ccccc1)c1ccc(O)c(C)c1O (stereo not drawn) [k-1:B-1] | 7.93 | 14% | 89% | 31% | 99% |
| CC/C(=N\NC(=O)NCc1cccc(O)c1)c1ccc(O)c(C)c1O [k-1:J-1] | 9.14 | 13% | 86% | 30% | 109% |
